# Test results from patent US10072026B2, “Crystalline form of 3-((1R,3s,5S)-3-((7-((5-methyl-1H-pyrazol-3-yl)amino)-1,6-naphthyridin-5-yl)amino)-8-azabicyclo[3.2.1]octan-8-yl)propanenitrile” (priority 2015, dated 2018).
# Like-named read-outs stand apart in the source and are kept apart here.
# How the values were obtained:
# in vivo = assay: in vivo; parameters: species or system Sprague Dawley rats; settings: Sprague Dawley, rat, po, 5 mg/kg
# Description: Assay 5: Colon Pharmacokinetics in Rats
# Test compounds were individually formulated in 0.5% methyl-cellulose in water and dosed via oral gavage at 5 mg/kg to Sprague Dawley rats. At various time points (typically 1, 2, 4, 6, 24 hr) post dosing, blood samples were removed via cardiac puncture and intact colons were excised from the rats. Blood samples were centrifuged at 1500×g for 15 min to collect plasma. Colons were washed with ice cold phosphate buffered saline (PBS), weighed, and homogenized at a dilution of 1:10 in PBS. Plasma and colon levels of test compound were determined by LC-MS analysis against analytical standards constructed into a standard curve in the test matrix. A colon to plasma ratio was determined as the ratio of the colon AUC to the plasma AUC in μg hr/g.
# [1] = Pharmacokinetics in plasma and the GI tract in rats; type: in vivo, Sprague Dawley rats; settings: rat, 5 mg/kg oral, all time points (0.5-24 hr); below limit of quantitation
# Description: Assay 6: Pharmacokinetics in Plasma and the GI Tract in Rats and Dogs A test compound was dosed to male Sprague Dawley rats (n=3) as described in Assay 5. […] At all time points, the plasma concentration was below the limit of quantitation of 0.001 μg/mL.
# [2] = Pharmacokinetics in plasma and the GI tract in dogs; type: in vivo; settings: male, beagle, GI tissue (duodenum, ileum, cecum, colon) and plasma, dog, 5 mg/kg oral
# Description: Assay 6: Pharmacokinetics in Plasma and the GI Tract in Rats and Dogs
# An analogous experiment was performed in dogs. Male beagle dogs (n=2) were dosed via oral gavage with 5 mg/kg of test compound, formulated as above. In dog number 1, plasma samples were taken at 0.25, 1, 2, 4, 6, and 24 hr post dosing. In dog number 2, plasma samples were taken to 6 hr. In both dog number 1 (at 24 hr) and dog number 2 (at 6 hr) the GI tract was removed and segmented as follows: duodenum, ileum, cecum and the colon segmented into equal thirds (proximal, middle, and distal colon). For each of the GI segments, an approximately 2 cm piece was excised in the middle of the segment. Each was washed thoroughly in ice cold PBS buffer and then homogenized in 5 volumes of PBS buffer and analyzed as above. […] The GI tissue to plasma ratio ranged from about 7 to about 30 for collections conducted at 24 hours post oral dose.
# [3] = test system: oxazolone-induced colitis; assay: Mouse model of oxazolone-induced colitis; type: in vivo, BALB/C mice
# Outline: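 Adult BALB/c mice skin-sensitized with 4% oxazolone on day 1, then challenged intrarectally 7 days later with 50 μL 1% oxazolone. Compound dosed PO, BID or TID, starting one day before challenge. Blinded Disease Activity Index (stool consistency, bleeding, weight loss, averaged) scored 2 days post-challenge.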
# mouse splenic NK cells = assay: Immunosuppression effects in mouse splenic natural killer (NK) cells; type: in vivo, Balb/C mice; settings: mouse spleen, PO BID three days
# Description: Adult male Balb/C mice (12-14 weeks of age) from Harlan were used for the study. […] Spleens were harvested 1 or 2 h post last dose and crushed immediately for cell subtype staining. Prior to fixation, fluorophore-labelled antibodies for CD19 (FITC; B cells), CD3e (PE; pan T cells) and DX5 (APC; NK cells) were incubated with splenocyte samples from each animal to allow for simultaneous, multiple subtype % analysis on the flow cytometer. The number of total spleen cells for each animal was measured by Scepter™ 2.0 Handheld Automated Cell Counter. The absolute number of lymphocyte subtype population (e.g., splenic B, T and NK cells) was calculated from the percentage of each subtype times total spleen cells for each animal. A one way ANOVA, with Dunnett's post hoc test, was used to compare the splenic lymphocytes number of the vehicle and test compound groups. The a level was set at p<0.05. Data were presented as the mean±SEM for each group.
# [4] = First in human study of safety, tolerability and pharmacokinetics in healthy subjects; type: in vivo; settings: for Cmax at 14 days / Cmax: human, plasma, oral, healthy subjects; for Cmax at 14 days: 14 days administration up to 300 mg; for Cmax: single dose up to 1000 mg
# Description: Assay 9: First in Human Study to Evaluate the Safety, Tolerability and Pharmacokinetics in Healthy Subjects
# The compound of Example 1 was evaluated in a double-blinded, randomized, placebo-controlled, single ascending dose (SAD) and multiple ascending dose (MAD) study of safety, tolerability, and pharmacokinetics in healthy subjects. Pharmacokinetic samples were collected up to 72 hours post the final dose in both the SAD study (after the first dose) and MAD study (after 14 days of once-daily dosing). The SAD study enrolled 5 cohorts and the MAD study enrolled 4 cohorts totaling 72 subjects, of which 71 completed the dosing period.
# Plasma pharmacokinetic (PK) parameters were determined by non-compartmental analysis using WinNonLin Version 6.4.0 (Pharsight, St Louis, Mo.). The plasma PK parameter presented here is:
# Cmax: maximum concentration in plasma
# [5] = test system: IL-4 induced STAT6 phosphorylation in THP-1 human monocytic cells; assay: Cellular JAK potency assay, THP-1; settings: Homo sapiens, THP-1, read-out: THP-1 IL4 pIC50 (converted)
# [6] = test system: IL-13 induced STAT6 phosphorylation in BEAS-2B human lung epithelial cells; assay: AlphaScreen cellular JAK potency assay, BEAS-2B; settings: Homo sapiens, BEAS-2B, read-out: BEAS2B pIC50 (converted)
# [7] = read-out: average Cmax plasma concentration
# [8] = read-out: individual subject Cmax
smiles,measurement,setting,value
"Cc1cc(Nc2cc3ncccc3c(N[C@@H]3C[C@H]4CC[C@@H](C3)N4CCC#N)n2)n[nH]1 [Example 1, 3-((1R,3s,5S)-3-((7-((5-methyl-1H-pyrazol-3-yl)amino)-1,6-naphthyridin-5-yl)amino)-8-azabicyclo[3.2.1]octan-8-yl)propanenitrile]",Kp,in vivo,> 450
same,plasma concentration,[1],< 1 ng/mL
same,Kp at 6 hours,"[2]; 6 hours post dose, read-out: ratio of concentration in GI tissue to plasma",9 to 165
same,Kp at 24 hours,"[2]; 24 hours post dose, read-out: GI tissue to plasma ratio",7 to 30
same,minimal dose that caused a significant anti-colitic effect,[3]; mouse oxazolone-induced colitis,1 mg/kg
same,decrease in DAI score as compared with vehicle treated animals,"[3]; mouse, PO, 1, 3, and/or 10 mg/kg BID",statistically significant decrease
same,treatment effect on B and T cell populations,mouse splenic NK cells,No treatment effect
same,drug concentration in stool samples,[4]; healthy human subjects,high drug concentration
same,Cmax at 14 days,[4]; [7],< 15 ng/mL
same,Cmax at 14 days,[4]; [8],≤ 30 ng/mL
same,Cmax,[4]; [7],< 50 ng/mL
same,Cmax,[4]; [8],≤ 100 ng/mL
same,IC50,[5],31.6 to 200 nM
same,IC50,[6],31.6 to 200 nM
